Data published in patent US12544395B2, “Combination compositions comprising a beta-lactamase inhibitor and uses thereof” (priority 2018, dated 2026).

Assays:
Assay type in all cases: cell-based
[1] = test system: panel of ESBL-producing Enterobacteriaceae (40 strains); assay: Broth microdilution MIC50/MIC90 summary over the panel
K. pneumoniae ESBL 7 #2 = assay: Broth microdilution MIC (strain enzymes: SHV-12, CTX-M15, TEM-1)
E. coli 3327 = assay: Broth microdilution MIC (strain enzymes: TEM-1, SHV-12)
K. pneumoniae KPN 508 = assay: Broth microdilution MIC (strain enzymes: SHV-7, TEM-1)
K. pneumoniae 115468 = assay: Broth microdilution MIC (strain enzymes: TEM-1); details: with inhibitor at 1 μg/mL

SMILES: CCC(=O)N[C@H]1Cc2cccc(C(=O)O)c2OB1O [Compound 2, (R)-2-hydroxy-3-propionamido-3,4-dihydro-2H-benzo[e][1,2]oxaborinine-8-carboxylic acid]
- Cefixime MIC90 ([1]; with inhibitor at 1 μg/mL): 4 µg/mL
- Cefpodoxime MIC50 ([1]; with inhibitor at 1 μg/mL): 1 µg/mL
- Cefpodoxime MIC90 ([1]; with inhibitor at 1 μg/mL): 8 µg/mL
- Ceftibuten MIC50 ([1]; with inhibitor at 1 μg/mL): 0.125 µg/mL
- Ceftibuten MIC90 ([1]; with inhibitor at 1 μg/mL): 0.5 µg/mL
- Cephalexin MIC50 ([1]; with inhibitor at 1 μg/mL): 8 µg/mL
- Cephalexin MIC90 ([1]; with inhibitor at 1 μg/mL): 32 µg/mL
- Cefdinir MIC50 ([1]; with inhibitor at 2 μg/mL): 0.5 µg/mL
- Cefdinir MIC90 ([1]; with inhibitor at 2 μg/mL): 2 µg/mL
- Cefixime MIC50 ([1]; with inhibitor at 2 μg/mL): 0.5 µg/mL
- Cefixime MIC90 ([1]; with inhibitor at 2 μg/mL): 4 µg/mL
- Cefpodoxime MIC50 ([1]; with inhibitor at 2 μg/mL): 1 µg/mL
- Cefpodoxime MIC90 ([1]; with inhibitor at 2 μg/mL): 2 µg/mL
- Ceftibuten MIC50 ([1]; with inhibitor at 2 μg/mL): 0.125 µg/mL
- Ceftibuten MIC90 ([1]; with inhibitor at 2 μg/mL): 0.25 µg/mL
- Cephalexin MIC50 ([1]; with inhibitor at 2 μg/mL): 8 µg/mL
- Cephalexin MIC90 ([1]; with inhibitor at 2 μg/mL): 32 µg/mL
- Cefdinir MIC50 ([1]; with inhibitor at 4 μg/mL): 0.5 µg/mL
- Cefdinir MIC90 ([1]; with inhibitor at 4 μg/mL): 2 µg/mL
- Cefixime MIC50 ([1]; with inhibitor at 4 μg/mL): 0.25 µg/mL
- Cefixime MIC90 ([1]; with inhibitor at 4 μg/mL): 1 µg/mL
- Cefpodoxime MIC50 ([1]; with inhibitor at 4 μg/mL): 1 µg/mL
- Cefpodoxime MIC90 ([1]; with inhibitor at 4 μg/mL): 2 µg/mL
- Ceftibuten MIC50 ([1]; with inhibitor at 4 μg/mL): 0.125 µg/mL
- Ceftibuten MIC90 ([1]; with inhibitor at 4 μg/mL): 0.25 µg/mL
- Cephalexin MIC50 ([1]; with inhibitor at 4 μg/mL): 8 µg/mL
- Cephalexin MIC90 ([1]; with inhibitor at 4 μg/mL): 16 µg/mL
- MIC of cefalexin (LEX) (K. pneumoniae ESBL 7 #2; with inhibitor at 1 μg/mL): >32 µg/mL
- MIC of cefdinir (CDR) (K. pneumoniae ESBL 7 #2; with inhibitor at 1 μg/mL): >32 µg/mL
- MIC of cefixime (CFM) (K. pneumoniae ESBL 7 #2; with inhibitor at 1 μg/mL): 8 µg/mL
- MIC of ceftibuten (CTB) (K. pneumoniae ESBL 7 #2; with inhibitor at 1 μg/mL): 4 µg/mL
- MIC of cefalexin (LEX) (K. pneumoniae ESBL 7 #2; with inhibitor at 2 μg/mL): 32 µg/mL
- MIC of cefdinir (CDR) (K. pneumoniae ESBL 7 #2; with inhibitor at 2 μg/mL): 32 µg/mL
- MIC of cefixime (CFM) (K. pneumoniae ESBL 7 #2; with inhibitor at 2 μg/mL): 8 µg/mL
- MIC of ceftibuten (CTB) (K. pneumoniae ESBL 7 #2; with inhibitor at 2 μg/mL): 2 µg/mL
- MIC of cefalexin (LEX) (K. pneumoniae ESBL 7 #2; with inhibitor at 4 μg/mL): 16 µg/mL
- MIC of cefdinir (CDR) (K. pneumoniae ESBL 7 #2; with inhibitor at 4 μg/mL): 16 µg/mL
- MIC of cefixime (CFM) (K. pneumoniae ESBL 7 #2; with inhibitor at 4 μg/mL): 1 µg/mL
- MIC of ceftibuten (CTB) (K. pneumoniae ESBL 7 #2; with inhibitor at 4 μg/mL): 1 µg/mL
- MIC of cefalexin (LEX) (E. coli 3327; with inhibitor at 1 μg/mL): 0.5 µg/mL
- MIC of cefdinir (CDR) (E. coli 3327; with inhibitor at 1 μg/mL): 0.5 µg/mL
- MIC of cefixime (CFM) (E. coli 3327; with inhibitor at 1 μg/mL): 1 µg/mL
- MIC of ceftibuten (CTB) (E. coli 3327; with inhibitor at 1 μg/mL): 0.25 µg/mL
- MIC of cefalexin (LEX) (E. coli 3327; with inhibitor at 2 μg/mL): 0.5 µg/mL
- MIC of cefdinir (CDR) (E. coli 3327; with inhibitor at 2 μg/mL): 0.5 µg/mL
- MIC of cefixime (CFM) (E. coli 3327; with inhibitor at 2 μg/mL): 0.5 µg/mL
- MIC of ceftibuten (CTB) (E. coli 3327; with inhibitor at 2 μg/mL): 0.25 µg/mL
- MIC of cefalexin (LEX) (E. coli 3327; with inhibitor at 4 μg/mL): 0.5 µg/mL
- MIC of cefdinir (CDR) (E. coli 3327; with inhibitor at 4 μg/mL): 0.5 µg/mL
- MIC of cefixime (CFM) (E. coli 3327; with inhibitor at 4 μg/mL): 0.5 µg/mL
- MIC of ceftibuten (CTB) (E. coli 3327; with inhibitor at 4 μg/mL): 0.25 µg/mL
- MIC of cefalexin (LEX) (K. pneumoniae KPN 508; with inhibitor at 1 μg/mL): 0.5 µg/mL
- MIC of cefdinir (CDR) (K. pneumoniae KPN 508; with inhibitor at 1 μg/mL): 0.5 µg/mL
- MIC of cefixime (CFM) (K. pneumoniae KPN 508; with inhibitor at 1 μg/mL): 4 µg/mL
- MIC of ceftibuten (CTB) (K. pneumoniae KPN 508; with inhibitor at 1 μg/mL): 0.125 µg/mL
- MIC of cefalexin (LEX) (K. pneumoniae KPN 508; with inhibitor at 2 μg/mL): 0.25 µg/mL
- MIC of cefdinir (CDR) (K. pneumoniae KPN 508; with inhibitor at 2 μg/mL): 0.25 µg/mL
- MIC of cefixime (CFM) (K. pneumoniae KPN 508; with inhibitor at 2 μg/mL): 1 µg/mL
- MIC of ceftibuten (CTB) (K. pneumoniae KPN 508; with inhibitor at 2 μg/mL): 0.125 µg/mL
- MIC of cefalexin (LEX) (K. pneumoniae KPN 508; with inhibitor at 4 μg/mL): 0.5 µg/mL
- MIC of cefdinir (CDR) (K. pneumoniae KPN 508; with inhibitor at 4 μg/mL): 0.5 µg/mL
- MIC of cefixime (CFM) (K. pneumoniae KPN 508; with inhibitor at 4 μg/mL): 0.5 µg/mL
- MIC of ceftibuten (CTB) (K. pneumoniae KPN 508; with inhibitor at 4 μg/mL): 0.06 µg/mL
- MIC of cefalexin (LEX) (K. pneumoniae 115468): 0.5 µg/mL
- MIC of cefdinir (CDR) (K. pneumoniae 115468): 0.5 µg/mL
- MIC of cefixime (CFM) (K. pneumoniae 115468): 2 µg/mL
- MIC of ceftibuten (CTB) (K. pneumoniae 115468): 0.06 µg/mL
